Measured values reported in US12655116B2, “Substituted isophthalic acid diamides” (Bayer Aktiengesellschaft, priority 2020, dated 2026).

Columns and labels:
[1] = system: ABUTH; test: Pre-emergence herbicidal action against ABUTH; format: in vivo, Abutilon theophrasti; conditions: for Pre-emergence action against ABUTH (herbicidal activity): 80 g/ha, scored visually after 3 weeks vs untreated controls (100% = plants have died, 0% = like control plants); for Pre-emergence action against ABUTH (herbicidal activity in percent): dosage 20 g/ha, scored visually after 3 weeks vs untreated controls, 100% = plants have died, 0% = like control plants
Summary of the method: (§1)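 Greenhouse pots of sandy loam held seeds covered with soil, onto which the compound was applied before emergence. An aqueous suspension or emulsion of WP or EC was used at 600 to 800 l/ha with 0.2% wetting agent. Percent damage was judged visually at 3 weeks.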

[2] = system: ALOMY; test: Pre-emergence herbicidal action against ALOMY; format: in vivo, Alopecurus myosuroides; conditions: 80 g/ha, pre-emergence, scored visually after 3 weeks vs untreated controls (100% = plants have died, 0% = like control plants)
Summary of the method: as §1

[3] = system: AMARE; test: Pre-emergence herbicidal action against AMARE; format: in vivo, Amaranthus retroflexus
Summary of the method: as §1

[4] = system: ECHCG; test: Pre-emergence herbicidal action against ECHCG; format: in vivo, Echinochloa crus-galli; conditions: 80 g/ha
Summary of the method: as §1

[5] = system: MATIN; test: Pre-emergence herbicidal action against MATIN; format: in vivo, Matricaria inodora
Summary of the method: as §1

[6] = system: PHBPU; test: Pre-emergence herbicidal action against PHBPU; format: in vivo, Pharbitis purpurea; conditions: dosage 80 g/ha
Summary of the method: as §1

[7] = system: POLCO; test: Pre-emergence herbicidal action against POLCO; format: in vivo, Polygonum convolvulus; conditions: dosage 80 g/ha
Summary of the method: as §1

[8] = system: SETVI; test: Pre-emergence herbicidal action against SETVI; format: in vivo, Setaria viridis
Summary of the method: as §1

[9] = system: VERPE; test: Pre-emergence herbicidal action against VERPE; format: in vivo, Veronica persica
Summary of the method: as §1

[10] = system: VIOTR; test: Pre-emergence herbicidal action against VIOTR; format: in vivo, Viola tricolor
Summary of the method: as §1

[11] = system: DIGSA; test: Pre-emergence herbicidal action against DIGSA; format: in vivo, Digitaria sanguinalis
Summary of the method: as §1

[12] = system: ABUTH; test: Post-emergence herbicidal action against ABUTH; format: in vivo, Abutilon theophrasti; conditions: visual assessment about 3 weeks after treatment vs untreated controls
Summary of the method: (§2)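 A WP or EC formulation diluted in water with 0.2% wetting agent was sprayed at 600 to 800 l/ha onto one-leaf-stage plants grown in sandy loam. About 3 weeks later, action was rated visually in percent, 100% being dead plants.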

[13] = system: ALOMY; test: Post-emergence herbicidal action against ALOMY; format: in vivo, Alopecurus myosuroides; conditions: dosage 20 g/ha, visual assessment about 3 weeks after treatment vs untreated controls
Summary of the method: as §2

[14] = system: AMARE; test: Post-emergence herbicidal action against AMARE; format: in vivo, Amaranthus retroflexus; conditions: 20 g/ha, visual assessment about 3 weeks after treatment, 100% = plants have died, 0% = like control plants
Summary of the method: as §2

[15] = system: ECHCG; test: Post-emergence herbicidal action against ECHCG; format: in vivo, Echinochloa crus-galli
Summary of the method: as §2

[16] = system: MATIN; test: Post-emergence herbicidal action against MATIN; format: in vivo, Matricaria inodora
Summary of the method: as §2

[17] = system: PHBPU; test: Post-emergence herbicidal action against PHBPU; format: in vivo, Pharbitis purpurea
Summary of the method: as §2

[18] = system: SETVI; test: Post-emergence herbicidal action against SETVI; format: in vivo, Setaria viridis
Summary of the method: as §2

[19] = system: VERPE; test: Post-emergence herbicidal action against VERPE; format: in vivo, Veronica persica; conditions: 20 g/ha
Summary of the method: as §2

[20] = system: VIOTR; test: Post-emergence herbicidal action against VIOTR; format: in vivo, Viola tricolor
Summary of the method: as §2

[21] = system: DIGSA; test: Post-emergence herbicidal action against DIGSA; format: in vivo, Digitaria sanguinalis; conditions: for Post-emergence action against DIGSA: 20 g/ha
Summary of the method: as §2

[22] = 20 g/ha, scored visually after 3 weeks vs untreated controls, 100% = plants have died, 0% = like control plants
[23] = 80 g/ha, scored visually after 3 weeks vs untreated controls (100% = plants have died, 0% = like control plants)

SMILES | Pre-emergence action against ABUTH (herbicidal activity) [1] | Pre-emergence action against ABUTH (herbicidal activity in percent) [1] | Pre-emergence action against ALOMY (herbicidal activity) [2] | Pre-emergence action against AMARE in % [3, 22] | Pre-emergence action against AMARE in % [3, 23] | Pre-emergence action against ECHCG in % [4] | Pre-emergence action against MATIN in % ([5]; dosage 80 g/ha) | Pre-emergence action against PHBPU in % [6] | Pre-emergence action against POLCO in % [7] | Pre-emergence action against SETVI in % ([8]; dosage 80 g/ha) | Pre-emergence action against VERPE in % ([9]; dosage 20 g/ha) | Pre-emergence action against VERPE in % ([9]; dosage 80 g/ha) | Pre-emergence action against VIOTR in % ([10]; dosage 80 g/ha) | Pre-emergence action against DIGSA in % ([11]; dosage 20 g/ha) | Pre-emergence action against DIGSA in % ([11]; dosage 80 g/ha) | Post-emergence action against ABUTH in % ([12]; dosage 5 g/ha) | Post-emergence action against ABUTH in % ([12]; dosage 20 g/ha) | Post-emergence action against ALOMY in % [13] | Post-emergence action at 20 g/ha against AMARE in % [14] | Post-emergence action against ECHCG in % ([15]; dosage 20 g/ha) | other results
CCn1nnnc1NC(=O)c1ccc(C(F)(F)F)c(C(=O)NC)c1OC [Example 2-56] | 100% | 100% | 90% | 100% | 100% | 90% | 100% | 80% | 90% | 100% | 80% | 100% | 90% | 100% | 100% | 100% | 100% | 80% | 100% | 100% | Pre-emergence action against MATIN in % ([5]; dosage 20 g/ha): 90%; Pre-emergence action against SETVI in % ([8]; dosage 20 g/ha): 100%; Pre-emergence action against VIOTR in % ([10]; dosage 20 g/ha): 80%; Post-emergence action against MATIN in % ([16]; dosage 5 g/ha): 80%; Post-emergence action against MATIN in % ([16]; dosage 20 g/ha): 90%; Post-emergence action against PHBPU in % ([17]; dosage 5 g/ha): 80%; Post-emergence action against PHBPU in % ([17]; dosage 20 g/ha): 90%; Post-emergence action against SETVI in % ([18]; dosage 5 g/ha): 80%; Post-emergence action against SETVI in % ([18]; dosage 20 g/ha): 100%; Post-emergence action against VERPE in % [19]: 80%; Post-emergence action against VIOTR in % ([20]; 5 g/ha): 80%; Post-emergence action against VIOTR in % ([20]; 20 g/ha): 100%; Post-emergence action against DIGSA in % ([21]; 5 g/ha): 90%; Post-emergence action against DIGSA [21]: 100%
Cc1nnc(NC(=O)c2ccc(C(F)F)c(C(=O)NC(C)C3CC3)c2C)o1 (stereo not drawn) [Example 6-258] | 100% | 100% | 90% | 100% | 100% | 100% | 90% | 90% | 80% | 80% | 90% | 100% | 80% | 100% | 100% | 80% | 90% | 80% | 90% | 90% | Post-emergence action against ECHCG in % ([15]; dosage 5 g/ha): 80%; Post-emergence action against VERPE in % [19]: 80%; Post-emergence action against DIGSA [21]: 90%
